Experimental findings from patent US20230201238A1, “THERAPEUTIC AGENT FOR AN RNA VIRUS INFECTION COMPRISING A COMBINATION OF A PYRAZINE DERIVATIVE AND A THIOPURINE DERIVATIVE” (priority 2020, published 2023) are described below.

Molecules are shown by their SMILES. pIC50: −log10 of the molar value. Where two headings read alike, the source gives them in different places.

In assay [1] the test system is influenza virus (PR/8/34 (H1N1)). Format: cell-based. The settings on record: for pIC50: Vero cells, 2 days, read-out: The 50% CPE inhibitory concentration of T-705.
The subject of another assay is Vero cells. The conditions noted are these: with T-705.

Take `NC(=O)c1nc(F)cnc1O` [T-705]: the pIC50 was 3.74 in assay [1] (T-705 alone (6-methylmercaptopurine 0 μM)); 4.05 in assay [1] (with 6-methylmercaptopurine 0.1 μM); 4.31 in assay [1] (with 6-methylmercaptopurine 0.3 μM); 4.51 in assay [1] (with 6-methylmercaptopurine 1 μM); 4.66 in assay [1] (with 6-methylmercaptopurine 3 μM); 4.69 in assay [1] (with 6-methylmercaptopurine 10 μM). In addition, the “50% CPE inhibitory concentration of T-705 in combination compared to T-705 alone” value in assay [1] (in combination with 6-methylmercaptopurine riboside) is “lower”.
Regarding `CSc1ncnc2c1ncn2[C@@H]1O[C@H](CO)[C@@H](O)[C@H]1O` [6-methylmercaptopurine riboside], the “Effect on intracellular T-705RTP amount after T-705 treatment” value with Vero cells is listed as “increased”. Moreover, the CPE inhibitory effect entry in assay [1] (6-methylmercaptopurine riboside 10 μM alone) was “did not show a CPE inhibitory effect”.
